Reference: ChEMBL document CHEMBL1201862, “PubChem BioAssay data set” (2004)
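Compound exposure: 48 hours, 5 concentrations, 96-well plates. Abbreviation: GI50, concentration required for 50% inhibition of growth.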 Active and inactive are the calls of the source. No stated cut-off is given here; in the data, active = GI50 up to about 1.1 µM and inactive = higher.

Assays:
Assay in all cases: NCI-60 cell line screen, 48 h
[1] = test system: DU-145
[2] = test system: OVCAR-4
[3] = test system: HOP-92
[4] = test system: SK-OV-3
[5] = test system: T47D
[6] = test system: Hs-578T
[7] = test system: HCT-15
[8] = test system: CCRF-CEM
[9] = test system: M14
[10] = test system: HOP-62
[11] = test system: SF-539
[12] = test system: TK-10
[13] = test system: UACC-62
[14] = test system: OVCAR-8
[15] = test system: SF-295
[16] = test system: KM12
[17] = test system: U-251
[18] = test system: HL-60
[19] = test system: COLO 205
[20] = test system: MDA-MB-231

O=C1C=CC(=O)c2c(O)c(N(CCCl)CCCl)c(Cl)c(O)c21
GI50 [1]: > 8.63 µM (inactive) | GI50 [2]: 4.49 µM (inactive) | GI50 [3]: 2.98 µM (inactive) | GI50 [4]: > 10 µM (inactive) | GI50 [5]: 4.71 µM (inactive) | GI50 [6]: 6.25 µM (inactive) | GI50 [7]: 5.45 µM | GI50 [8]: 1.25 µM (inactive) | GI50 [9]: 4.37 µM (inactive) | GI50 [10]: > 9.48 µM (inactive) | GI50 [11]: 5.24 µM (inactive) | GI50 [12]: 3.35 µM (inactive) | GI50 [13]: > 6.07 µM (inactive) | GI50 [14]: 4.51 µM (inactive) | GI50 [15]: > 10 µM (inactive) | GI50 [16]: 6.4 µM (inactive) | GI50 [17]: 5.73 µM (inactive) | GI50 [18]: > 6.05 µM (inactive) | GI50 [19]: 3.94 µM (inactive) | GI50 [20]: 4.56 µM (inactive)
